Test results published in patent US11944623B2, “Modulators of Kv3 channels to treat pain” (Autifony Therapeutics Limited, priority 2015, dated 2024).

Tests used:
[1] = test system: rat model of persistent inflammatory pain; assay: Persistent inflammatory pain model (intraplantar FCA): paw withdrawal to mechanical pressure and cold (10° C.), general observations; assay type: in vivo; settings: 30 mg/kg oral
Procedure: (§1) The efficacy of Compounds 1, 2, 3 and 4 was investigated using rat models of neuropathic and/or persistent inflammatory pain.
(§2) Subjects comprised male, Wistar Hanover rats, 6 animals per group (225±2 g for Compound 1 studies and Compound 2 studies; 214±1 g for Compound 3 studies; 236±1 g for Compound 4 studies).
(§3) Vehicle (12% Captisol®; 0.5% w/v HPMC and 0.1% w/v Tween-80; 5 ml/kg via the intraperitoneal route) was prepared using autoclaved deionized water not more than one week prior to use.
(§4) The details of the studies performed are outlined in Table 1.
(§5) The control for the neuropathic pain model was lamotrigine, administered at 30 mg/kg via oral delivery. The control for the inflammatory pain model was diclofenac, administered at 30 mg/kg via oral delivery. Statistical analysis was performed using one-way ANOVA, and comparisons were performed with time-matched vehicle group using Tukey's HSD test wherein * p<0.05, ** p<0.01, *** p<0.001.
(§6) Treatment groups were randomised and blinded. Groups of 6 rats were used.
Mechanical hyperalgesia was examined in a model of persistent inflammatory pain. The hyperalgesia was induced by an intraplantar injection (25 μl) of Freund's Complete Adjuvant (FCA) into the left hind paw.
To assess the effect of the test compound, paw withdrawal thresholds or latencies were measured on both the ipsilateral (FCA-injected) and contralateral (non-injected) paws, prior to (naïve) and 24 hours following FCA injection (predose), and then at 1, 3, 6 and 24 hours after drug or vehicle administration.
(§7) Mechanical hyperalgesia was examined in a model of neuropathic pain by measuring paw withdrawal thresholds (PWT) to increasing mechanical force applied to the dorsal surface of the rat paw using an Analgesymeter (Ugo-Basile, Milan) equipped with a wedge-shaped probe (area 1.75 mm^2). Cut-off was set at 250 g and the end-point was taken as withdrawal of the hind paw. Both ipsilateral and contralateral paw withdrawal readings were taken.
(§8) Cold sensitivity was assessed using a commercially available cold-plate (Ugo Basile, Milan). The cold plate was allowed to stabilize for 5 minutes at the set temperature prior to testing. Paw withdrawal latencies (PWL) were determined with the cold-plate set at 10° C. The animals were lightly restrained and each hind paw in turn placed onto the surface of the cold-plate. The end point was taken as the withdrawal of the paw and recorded as the withdrawal latency for the ipsilateral and the contralateral paw. A maximum cut-off of 30 seconds was used for each paw.
(§9) In addition to behavioural pain readings, each rat was observed throughout the study for changes in general behaviour.
(§10) Data were expressed as withdrawal threshold (g) or withdrawal latencies (s) and percentage reversals calculated according to the following formula: […]
(§11) Statistical analysis was carried out on withdrawal threshold readings using ANOVA with repeated measures followed by Tukey's HSD test. The level for statistical significance was set as p<0.05.

[2] = test system: rat model of neuropathic pain; assay: Neuropathic pain model (partial ligation of the sciatic nerve): paw withdrawal to mechanical pressure and cold (10° C.), general observations; assay type: in vivo
Procedure: as §1, §2, §3, §4, §5, §6
Neuropathic pain was induced by partial ligation of the sciatic nerve. Briefly, the rats were anaesthetised (isoflurane/O2 inhalation), the left sciatic nerve exposed at mid-thigh level through a small incision and ⅓ to ½ of the nerve thickness tightly ligated within a 7.0 silk suture. The wound was closed with surgical glue. Animals were allowed to recover and tested 12-15 days following surgery.
Withdrawal thresholds or latencies were measured on both the ipsilateral (ligated) and contralateral (non-ligated) paws, prior to (predose) and then up to 24 h following drug or vehicle administration.
Pre-dose behavioural measurements were obtained by measuring paw withdrawals 14 days following nerve ligation; before the initiation of drug treatment. Following treatment, further readings were taken at 1, 3, 6 and 24 hour after administration.
as §7, §8, §9, §10, §11

[3] = positive control in Compound 2 study, 3 hours post-dose
[4] = positive control in Compound 3 study, 3 hours post-dose
[5] = positive control in Compound 4 study
[6] = positive control in Compound 2 Study 1, 30 mg/kg oral, 3 hours post-dose
[7] = positive control in Compound 3 neuropathic study, 30 mg/kg oral, 3 hours post-dose
[8] = positive control in Study 2 (Compounds 1 and 2), 30 mg/kg oral, 3 hours post-dose

O=C(O)Cc1ccccc1Nc1c(Cl)cccc1Cl [diclofenac, reference compound]
peak reversal, mechanical ([1]; positive control in Compound 1 study, 1 hour post-dose): 64% | peak reversal, cold ([1]; positive control in Compound 1 study, 3 hours post-dose): 79% | peak reversal, cold [1, 3]: 69% | peak reversal, mechanical [1, 3]: 66% | peak reversal, cold [1, 4]: 45% | peak reversal, mechanical [1, 4]: 60% | reversal, cold [1, 5]: 50% | reversal, mechanical [1, 5]: 49%

Nc1nnc(-c2cccc(Cl)c2Cl)c(N)n1 [lamotrigine, reference compound]
peak reversal, cold ([2]; positive control in Compound 1 Study 1, 30 mg/kg oral, 1 hour post-dose): 58% | peak reversal, mechanical ([2]; positive control in Compound 1 Study 1, 30 mg/kg oral, 3 hours post-dose): 65% | peak reversal, cold [2, 6]: 58% | peak reversal, mechanical [2, 6]: 54% | peak reversal, cold [2, 7]: 74% | peak reversal, mechanical [2, 7]: 61% | peak reversal, cold [2, 8]: 67% | peak reversal, mechanical [2, 8]: 67%
